We go through 14 compounds from ChEMBL document CHEMBL1201862, “PubChem BioAssay data set” (2004).

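Method: 48-hour compound exposure of cells in 96-well plates, five concentrations, linear interpolation of endpoints. The concentration for 50% growth inhibition is given as GI50.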 Calls of active or inactive are those of the source. Cut-off read from the data, not from the text of the source: active = GI50 up to about 1.1 µM and inactive = higher. A value given as a limit tells only on which side of the number the result lay.

Some test systems named below: EKVX; UACC-257; A498; NCI-H460; SK-OV-3; OVCAR-5; SR; HOP-62; CAKI-1; RXF 393; Malme-3M; OVCAR-4; COLO 205; U-251; ACHN.
Common to all, as to assay: NCI-60 cell line screen, 48 h

Take `CCCCCCC(O)CC[C@H]1CCC[C@@H](C)N1` (stereo partly specified): the GI50 is > 100 µM (inactive) with EKVX; > 10 µM (inactive) with UACC-257; > 10 µM (inactive) in the test on A498; > 100 µM (inactive) in the test with NCI-H460; > 100 µM (inactive) in the test with SK-OV-3; > 10 µM (inactive) in the test on OVCAR-5. Moreover, the GI50 in the test with SR is > 100 µM (inactive); in the test with HOP-62 it was > 31.6 µM (inactive); in the test with CAKI-1, > 100 µM (inactive); in the test on RXF 393, > 100 µM (inactive); with Malme-3M, > 100 µM (inactive); in the test with OVCAR-4, > 10 µM (inactive). Further, the figures for the GI50 in the test on COLO 205, in the test on U-251 and with ACHN were > 31.6 µM (inactive), > 31.6 µM (inactive) and > 100 µM (inactive), respectively.

Consider `CC(=O)Nc1ccc(C(=O)N2N=C(C)/C(=C\c3c(O)ccc4ccccc34)C2=O)cc1`, for which the GI50 with EKVX is > 100 µM (inactive); with UACC-257, > 100 µM (inactive); in the test on NCI-H460, > 100 µM (inactive); with OVCAR-5 it was > 100 µM (inactive); in the test on SR, 53.3 µM (inactive); in the test on HOP-62, > 100 µM (inactive). For the same compound, the GI50 in the test on CAKI-1 is > 100 µM (inactive); with Malme-3M, 24 µM (inactive); with OVCAR-4 it was > 100 µM (inactive); with COLO 205, > 100 µM (inactive); in the test with ACHN, 30.6 µM (inactive).

As to `Cc1cccc(NC(=O)c2cc3cc(/N=N/c4ccccc4Cl)ccc3oc2=O)c1`, the GI50 was 53.1 µM (inactive) in the test with EKVX; 40.4 µM (inactive) in the test with UACC-257; > 100 µM (inactive) with A498; 27 µM (inactive) in the test on NCI-H460; 88.7 µM (inactive) in the test on SK-OV-3; 23.4 µM (inactive) in the test with OVCAR-5. The GI50 is 46.2 µM (inactive) in the test on HOP-62; 41.1 µM (inactive) in the test on CAKI-1; 33.1 µM (inactive) in the test with RXF 393; 45.4 µM (inactive) in the test with Malme-3M; 29.4 µM (inactive) in the test with OVCAR-4; 57.7 µM (inactive) with COLO 205. Also, the GI50 in the test on U-251 was 26.5 µM (inactive); with ACHN, 40 µM (inactive).

With `O=S1(=O)OCCOS(=O)(=O)C1Cc1ccccc1`, the GI50 in the test on EKVX was 33.7 µM (inactive); in the test on UACC-257 it was 53.6 µM (inactive); in the test with A498, 36.8 µM (inactive); with NCI-H460, 33.2 µM (inactive); with SK-OV-3, > 100 µM (inactive); in the test on OVCAR-5, > 100 µM (inactive). In addition, the GI50 in the test with SR is 28.8 µM (inactive); in the test on HOP-62, 52.8 µM (inactive); in the test on CAKI-1 it was 55.8 µM (inactive); in the test with RXF 393 it was 41.1 µM (inactive); in the test on Malme-3M it was > 100 µM (inactive); with OVCAR-4, 43.5 µM (inactive). Moreover, the GI50 with COLO 205 was 19.1 µM (inactive); in the test on U-251, 24.4 µM (inactive); in the test on ACHN it was 51.5 µM (inactive).

For `CCOP(=O)(OCC)C1C(=O)O[C@H]2CCCC[C@@H]12` (stereo partly specified), the GI50 in the test with EKVX, in the test on UACC-257, in the test on A498, in the test with NCI-H460, with SK-OV-3 and with OVCAR-5 was > 100 µM (inactive) in each case. For the same compound, the GI50 with HOP-62, in the test on CAKI-1, in the test on RXF 393, with Malme-3M, in the test on OVCAR-4 and in the test with COLO 205 was > 100 µM (inactive) in each case. The GI50 with U-251 and in the test with ACHN was > 100 µM (inactive) throughout.

For the compound `Cc1cccc(C)c1NC(=O)C(=O)C(C#N)c1ccccc1` (stereo unspecified), the GI50 in the test on EKVX, in the test with UACC-257, in the test on A498, in the test with NCI-H460, with SK-OV-3 and in the test on OVCAR-5 was > 100 µM (inactive) each time. Besides, the GI50 in the test on HOP-62, in the test with CAKI-1, with RXF 393, in the test on Malme-3M, in the test with OVCAR-4 and in the test on COLO 205 was > 100 µM (inactive) each time. The GI50 with U-251 and with ACHN was > 100 µM (inactive) throughout.

As for `CC1=CC(N2C(=O)C(C)=CC2O)NC1=O` (stereo unspecified), the GI50 in the test on EKVX, in the test on UACC-257, with NCI-H460, with OVCAR-5, with SR and in the test with HOP-62 was > 100 µM (inactive) throughout. For the same compound, the GI50 is > 100 µM (inactive) in the test with CAKI-1; > 100 µM (inactive) in the test on RXF 393; 45.8 µM (inactive) in the test with Malme-3M; > 100 µM (inactive) in the test with OVCAR-4; > 100 µM (inactive) in the test with COLO 205; > 100 µM (inactive) in the test on U-251.

Turning to `Cc1cc(N(CCC#N)CCC#N)ccc1/C=C1/CN(N2C(=O)/C(=C/c3ccc(N(CCC#N)CCC#N)cc3C)N=C2c2ccccc2)C(c2ccccc2)=N1`, the GI50 with EKVX, in the test with UACC-257, in the test on A498, in the test with NCI-H460, in the test with OVCAR-5 and in the test on SR was > 100 µM (inactive) throughout. Besides, the GI50 in the test on HOP-62 is 34.6 µM (inactive); with CAKI-1 it was > 100 µM (inactive); in the test with RXF 393 it was 28.4 µM (inactive); in the test with Malme-3M, > 100 µM (inactive); with OVCAR-4, > 100 µM (inactive); in the test with COLO 205, > 100 µM (inactive). Further, the GI50 with U-251 is 32 µM (inactive); in the test with ACHN it was > 100 µM (inactive).

Turning to `O=c1nc(/C=C/c2ccccc2Cl)cc2n1CCN2CCO`, the GI50 with EKVX is > 100 µM (inactive); in the test with NCI-H460, > 100 µM (inactive); in the test on SK-OV-3 it was 43.8 µM (inactive); with OVCAR-5 it was > 100 µM (inactive); in the test on SR, 50.1 µM (inactive); in the test with HOP-62, > 100 µM (inactive). Moreover, the GI50 was > 100 µM (inactive) with CAKI-1; 95.1 µM (inactive) in the test on RXF 393; > 100 µM (inactive) in the test with Malme-3M; 80.2 µM (inactive) with OVCAR-4; > 100 µM (inactive) with COLO 205; > 100 µM (inactive) in the test with ACHN.

For `CCC(=O)C(C)C(=O)C(=O)C(=O)OC` (stereo unspecified), the GI50 is > 100 µM (inactive) in the test with EKVX; > 94.6 µM (inactive) in the test with UACC-257; > 100 µM (inactive) in the test on A498; > 100 µM (inactive) in the test on NCI-H460; > 100 µM (inactive) with SK-OV-3; > 100 µM (inactive) with OVCAR-5. Besides, the GI50 is > 100 µM (inactive) in the test on SR; > 100 µM (inactive) in the test with HOP-62; > 100 µM (inactive) in the test on CAKI-1; > 63.5 µM (inactive) with RXF 393; > 100 µM (inactive) in the test with Malme-3M; > 100 µM (inactive) in the test on OVCAR-4. Moreover, the GI50 in the test on COLO 205 was > 60.5 µM (inactive); in the test on U-251, > 47.3 µM (inactive); with ACHN, > 100 µM (inactive).

`COc1nc2c(nc(N)n2C2OCC(O)C(O)C2O)c(=O)n1C` (stereo unspecified): the GI50 in the test with EKVX, in the test on UACC-257, in the test with A498, in the test on NCI-H460, in the test on SK-OV-3 and with SR was > 100 µM (inactive) throughout. Also, the GI50 in the test on HOP-62, in the test on CAKI-1, with RXF 393, in the test with Malme-3M, with OVCAR-4 and in the test on COLO 205 was > 100 µM (inactive) in each case. For the same compound, the GI50 in the test with U-251 and in the test with ACHN was > 100 µM (inactive) each time.

`COC(=O)CCSC(=O)Nc1ccc(/N=N/c2ccccc2)cc1`: the GI50 in the test on EKVX is 39.5 µM (inactive); in the test on UACC-257, 56.5 µM (inactive); in the test with A498, 29.5 µM (inactive); in the test on NCI-H460 it was 31.6 µM (inactive); with SK-OV-3, > 100 µM (inactive); with OVCAR-5 it was 71.1 µM (inactive). For the same compound, the GI50 with SR was 30.6 µM (inactive); with HOP-62, > 100 µM (inactive); in the test with CAKI-1 it was 98.4 µM (inactive); in the test with RXF 393, > 100 µM (inactive); in the test with Malme-3M it was > 100 µM (inactive); in the test with OVCAR-4, 30.4 µM (inactive). In addition, the results for the GI50 in the test on COLO 205, with U-251 and in the test on ACHN were 20.3 µM (inactive), 37.5 µM (inactive) and 29 µM (inactive), respectively.

In the case of `Brc1ccc2ns[s+]c2c1`, the GI50 with EKVX is 13 µM (inactive); with UACC-257, 14.9 µM (inactive); in the test with A498, > 100 µM (inactive); with NCI-H460, 3.3 µM (inactive); with SK-OV-3, > 100 µM (inactive); with SR it was 4.36 µM (inactive). In addition, the GI50 in the test on HOP-62 was 5.05 µM (inactive); in the test on CAKI-1, 2.49 µM (inactive); in the test with RXF 393, > 100 µM (inactive); with Malme-3M, 33.5 µM (inactive); with OVCAR-4 it was > 20.9 µM (inactive); with COLO 205, 4.91 µM (inactive). Moreover, the values for the GI50 in the test with U-251 and with ACHN were 16 µM (inactive) and 0.897 µM (active), respectively.

As for `Cc1cc(CC(=O)NCCO)n(CCO)c(=O)c1`, the GI50 in the test on UACC-257, in the test on NCI-H460, in the test with OVCAR-5, with SR, in the test on HOP-62 and in the test with CAKI-1 was > 100 µM (inactive) each time. The GI50 with RXF 393, with Malme-3M, in the test with OVCAR-4, with COLO 205, with U-251 and with ACHN was > 100 µM (inactive) in each case.
